Data on 21 compounds can be found in ChEMBL document CHEMBL4043165, “Synthesis, estrogen receptor binding affinity and molecular docking of pyrimidine-piperazine-chromene and -quinoline conjugates” (Bioorg Med Chem Lett, 2017).

Common to all, as to format: cell-based
The subject of data set [1] is HEK-293T. Briefly: Cytotoxicity against HEK293T cells assessed as reduction in cell viability after 48 hrs by MTT assay. The settings on record: Homo sapiens. Background: Tetrazolium dyes change colour on reduction, which living cells bring about.
Data set [2] can be described thus: Modulation activity at ER in human MCF7 cells assessed as reduction in cell viability after 48 hrs by MTT assay. Particulars: MCF7, 48 h.
Data set [3] deals with HEK-293T. Briefly: Cytotoxicity against HEK293T cells assessed as reduction in cell viability at <50 uM after 48 hrs by MTT assay. The settings on record: human.
Data set [4] deals with HEK-293T. Briefly: Cytotoxicity against HEK293T cells assessed as reduction in cell viability up to 50 uM after 48 hrs by MTT assay. Particulars: human.

With `Cc1nc(Oc2ccc3c(c2)OC(N)=C(C#N)C3c2ccc(F)cc2)cc(N2CCN(CCO)CC2)n1` (stereo unspecified), the IC50 with HEK-293T [1] turned out to be 52 µM; in data set [2] it was 166 µM. Also, the Activity entry with HEK-293T [3] was “Toxic”.
The like results for `COc1ccc(C2C(C#N)=C(N)Oc3cc(Oc4cc(N5CCN(CCO)CC5)nc(C)n4)ccc32)cc1` (stereo unspecified) were, in that order, 55 µM, 104 µM and “Toxic”.
With `COc1cccc(C2C(C#N)=C(N)Nc3cc(Oc4cc(N5CCN(CCO)CC5)nc(C)n4)ccc32)c1` (stereo unspecified), the IC50 with HEK-293T [1] worked out at 39 µM; in data set [2] it was 166 µM. Further, the Activity result with HEK-293T [3] is reported as “Toxic”.
The like results for `Cc1nc(Oc2ccc3c(c2)OC(N)=C(C#N)C3c2ccccc2Cl)cc(N2CCN(CCO)CC2)n1` (stereo unspecified) were, in that order, 79 µM, 119 µM and “Toxic”.
For `Cc1nc(Oc2ccc3c(c2)OC(N)=C(C#N)C3c2ccc(Cl)cc2)cc(N2CCN(CCO)CC2)n1` (stereo unspecified), in that order: 18 µM, 73 µM and “Toxic”.
For `Cc1nc(Oc2ccc3c(c2)NC(N)=C(C#N)C3c2ccc(F)cc2)cc(N2CCN(CCO)CC2)n1` (stereo unspecified), in that order: 72 µM, 48 µM and “Toxic”.
As for `COc1ccc(C2C(C#N)=C(N)Nc3cc(Oc4cc(N5CCN(CCO)CC5)nc(C)n4)ccc32)cc1` (stereo unspecified), the IC50 came to 62 µM in the data set on HEK-293T [1] and 12 µM in data set [2]. In addition, the Activity result in the data set with HEK-293T [3] is “Toxic”.
For `Cc1nc(Oc2ccc3c(c2)NC(N)=C(C#N)C3c2ccccc2)cc(N2CCN(CCO)CC2)n1` (stereo unspecified), the Activity result with HEK-293T [4] is “Non-Toxic”. Besides, the values for the IC50 (with HEK-293T [1]; in data set [2]) were 141 µM and 65 µM, respectively.
Take `Cc1nc(Oc2ccc3c(c2)NC(N)=C(C#N)C3c2ccc(Br)cc2)cc(N2CCN(CCO)CC2)n1` (stereo unspecified): the values for the IC50 (in the data set with HEK-293T [1]; in data set [2]) were 62 µM and 193 µM, respectively. The Activity result with HEK-293T [3] is recorded as “Toxic”.
In the case of `Cc1nc(Oc2ccc3c(c2)OC(N)=C(C#N)C3c2ccc([N+](=O)[O-])cc2)cc(N2CCN(CCO)CC2)n1` (stereo unspecified), in the data set on HEK-293T [4], the Activity entry is “Non-Toxic”. The IC50 in the data set with HEK-293T [1] was 105 µM; in data set [2], 30 µM.
For the compound `Cc1nc(Oc2ccc3c(c2)OC(N)=C(C#N)C3c2ccccc2C)cc(N2CCN(CCO)CC2)n1` (stereo unspecified), the IC50 in the data set with HEK-293T [1] was 56 µM; in data set [2], 61 µM. Besides, the Activity result with HEK-293T [3] is reported as “Toxic”.
Regarding `Cc1nc(Oc2ccc3c(c2)NC(N)=C(C#N)C3c2ccccc2Cl)cc(N2CCN(CCO)CC2)n1` (stereo unspecified), the IC50 came out at 70 µM with HEK-293T [1] and 190 µM in data set [2]. In the data set on HEK-293T [3], the Activity entry is on record as “Toxic”.
In the case of `Cc1ccc(C2C(C#N)=C(N)Oc3cc(Oc4cc(N5CCN(CCO)CC5)nc(C)n4)ccc32)cc1` (stereo unspecified), in the data set on HEK-293T [4], the Activity entry is reported as “Non-Toxic”. Moreover, the IC50 with HEK-293T [1] is more than 200 µM; in data set [2], 16 µM.
As for `Cc1nc(Oc2ccc3c(c2)NC(N)=C(C#N)C3c2c(Cl)cccc2Cl)cc(N2CCN(CCO)CC2)n1` (stereo unspecified), the results for the IC50 (with HEK-293T [1]; in data set [2]) were 62 µM and 102 µM, respectively. Also, the Activity entry in the data set on HEK-293T [3] is “Toxic”.
For `Cc1nc(Oc2ccc3c(c2)OC(N)=C(C#N)C3c2ccccc2)cc(N2CCN(CCO)CC2)n1` (stereo unspecified), in the data set with HEK-293T [4], the Activity result was “Non-Toxic”. For the same compound, the IC50 with HEK-293T [1] is more than 200 µM; in data set [2], 92 µM.
For `Cc1ccc(C2C(C#N)=C(N)Nc3cc(Oc4cc(N5CCN(CCO)CC5)nc(C)n4)ccc32)cc1` (stereo unspecified), in that order: “Non-Toxic”, 140 µM and 48 µM.
Take `Cc1nc(Oc2ccc3c(c2)OC(N)=C(C#N)C3c2ccc(Br)cc2)cc(N2CCN(CCO)CC2)n1` (stereo unspecified): the IC50 in the data set on HEK-293T [1] was 19 µM; in data set [2], 91 µM. In addition, the Activity result with HEK-293T [3] is reported as “Toxic”.
For `Cc1nc(Oc2ccc3c(c2)NC(N)=C(C#N)C3c2ccccc2C)cc(N2CCN(CCO)CC2)n1` (stereo unspecified), in that order: 57 µM, 198 µM and “Toxic”.
For `Cc1nc(Oc2ccc3c(c2)NC(N)=C(C#N)C3c2ccc(Cl)cc2)cc(N2CCN(CCO)CC2)n1` (stereo unspecified), in that order: 95 µM, 170 µM and “Toxic”.
For `Cc1nc(Oc2ccc3c(c2)OC(N)=C(C#N)C3c2c(Cl)cccc2Cl)cc(N2CCN(CCO)CC2)n1` (stereo unspecified), in that order: 51 µM, 136 µM and “Toxic”.
In the case of `COc1cc(/C=C/C(=O)CC(=O)/C=C/c2ccc(O)c(OC)c2)ccc1O` [CURCUMIN], in the data set with HEK-293T [1], the IC50 was more than 400 µM.

One may read the IC50 as the point on the concentration scale where inhibition reaches its midpoint.
